According to patent US20200392158A1, “INHIBITORS OF LEUCINE RICH REPEAT KINASE 2” (GLAXOSMITHKLINE INTELLECTUAL PROPERTY DEVELOPMENT LIMITED, priority 2017, published 2020):

Molecular target: T1, LRRK2 kinase in SH-SY5Y cells over-expressing recombinant full length LRRK2 (Homo sapiens, UniProt Q5S007)
T1 construct: A BacMam virus expressing full length recombinant LRRK2 was purchased from Invitrogen; host or cells: SH-SY5Y human neuroblastoma cells transduced with BacMam LRRK2 virus
Assay: Recombinant cellular LRRK2 AlphaScreen assay (LRRK2 Ser935 phosphorylation)
Type: cell-based
Settings: 60 min
Text: b. Recombinant Cellular LRRK2 AlphaScreen Assay
To determine the activity of compounds against LRRK2 kinase in cells, the observed LRRK2 kinase-dependent modulation of LRRK2 Ser 935 phosphorylation (Dzamko et al., 2010, Biochem. J. 430: 405-413) was utilized to develop a quantitative 384 well plate-based immunoassay of LRRK2 Ser935 phosphorylation in the human neuroblastoma cell line SH-SY5Y, engineered to over-express recombinant full length LRRK2 protein.
A BacMam virus expressing full length recombinant LRRK2 was purchased from Invitrogen and amplified by inoculation of SF-9 cells at MOI 0.3 for 4-5 days in Sf-900 III SFM medium supplemented with 3% fetal bovine serum. Infected cell cultures were then centrifuged at 2000 g for 20 minutes, viral supernatant titer determined by anti-gp64 plaque assay and stored at 4° C.
Affinity-purified anti-phospho LRRK2 Ser935 sheep polyclonal antibody (Dzamko et al., 2010, Biochem. J. 430: 405-413) was biotinylated by standard methods (PerkinElmer). Anti-LRRK2 rabbit polyclonal antibody was purchased from Novus Biologicals. AlphaScreen Protein A IgG Kit (including acceptor and donor beads) was purchased from Perkin Elmer.
SH-SY5Y cells were grown in DMEM/F12 medium with 10% dialysed fetal bovine serum and harvested by treatment with 0.5% trypsin-EDTA for 5 minutes at 37° C. followed by centrifugation at 1000 rpm for 4 minutes. The cell pellet was resuspended in Opti-MEM reduced serum media (Invitrogen) at 200,000 cells/ml and mixed with the BacMam LRRK2 virus at M01=50. 50 μl cell solutions were then dispensed to each well of a 384-well plate and incubated at 37° C., 5% CO2 for 24 hours.
Compounds were prepared at 10× final assay concentration as 11 point 1 in 4 serial I dilutions in Opti-MEM reduced serum medium (Invitrogen 31985070) containing 1% DMSO. On the day of assay, 5.5 μl of the compound solutions were transferred from the compound plate to the cell assay plate to achieve a top final assay concentration of 10 uM. DMSO (0.1% final assay concentration) was added to column 6 and 2-(benzyloxy)-5-methyl-4-(1-methyl-1H-pyrazol-4-yl)-N-(pyridin-3-yl)benzamide (2 μM final assay concentration) was added to column 18 to serve as 0% and 100% inhibition controls, respectively.
Cells were incubated at 37° C., 5% CO2 for 60 minutes. The medium was then removed and cells lysed by addition of 20 μl of cell lysis buffer (Cell Signaling Technology) and incubation at 4° C. for 20 minutes. 10 μl of antibody/acceptor bead mix [(1/1000 biotinylated-pS935 LRRK2 antibody, 1/1000 total-LRRK2 antibody, 1/100 Acceptor beads in AlphaScreen detection buffer (25 mM Hepes (pH 7.4), 0.5% Triton X-100, 1 mg/ml Dextran 500 and 0.1% BSA)] was then added to each well and plates incubated for 2 hours at ambient temperature in the dark. 10 μl of donor beads solution (1/33.3 donor beads in AlphaScreen detection buffer) was then added to each well. Following incubation for a further 2 hours at ambient temperature in the dark, plates were read on an EnVision™ plate reader at emission 520-620 nm with excitation 680 nm. Dose response curve data was based on a sigmoidal dose-response model.

T1 sequence (Q5S007 whole entry): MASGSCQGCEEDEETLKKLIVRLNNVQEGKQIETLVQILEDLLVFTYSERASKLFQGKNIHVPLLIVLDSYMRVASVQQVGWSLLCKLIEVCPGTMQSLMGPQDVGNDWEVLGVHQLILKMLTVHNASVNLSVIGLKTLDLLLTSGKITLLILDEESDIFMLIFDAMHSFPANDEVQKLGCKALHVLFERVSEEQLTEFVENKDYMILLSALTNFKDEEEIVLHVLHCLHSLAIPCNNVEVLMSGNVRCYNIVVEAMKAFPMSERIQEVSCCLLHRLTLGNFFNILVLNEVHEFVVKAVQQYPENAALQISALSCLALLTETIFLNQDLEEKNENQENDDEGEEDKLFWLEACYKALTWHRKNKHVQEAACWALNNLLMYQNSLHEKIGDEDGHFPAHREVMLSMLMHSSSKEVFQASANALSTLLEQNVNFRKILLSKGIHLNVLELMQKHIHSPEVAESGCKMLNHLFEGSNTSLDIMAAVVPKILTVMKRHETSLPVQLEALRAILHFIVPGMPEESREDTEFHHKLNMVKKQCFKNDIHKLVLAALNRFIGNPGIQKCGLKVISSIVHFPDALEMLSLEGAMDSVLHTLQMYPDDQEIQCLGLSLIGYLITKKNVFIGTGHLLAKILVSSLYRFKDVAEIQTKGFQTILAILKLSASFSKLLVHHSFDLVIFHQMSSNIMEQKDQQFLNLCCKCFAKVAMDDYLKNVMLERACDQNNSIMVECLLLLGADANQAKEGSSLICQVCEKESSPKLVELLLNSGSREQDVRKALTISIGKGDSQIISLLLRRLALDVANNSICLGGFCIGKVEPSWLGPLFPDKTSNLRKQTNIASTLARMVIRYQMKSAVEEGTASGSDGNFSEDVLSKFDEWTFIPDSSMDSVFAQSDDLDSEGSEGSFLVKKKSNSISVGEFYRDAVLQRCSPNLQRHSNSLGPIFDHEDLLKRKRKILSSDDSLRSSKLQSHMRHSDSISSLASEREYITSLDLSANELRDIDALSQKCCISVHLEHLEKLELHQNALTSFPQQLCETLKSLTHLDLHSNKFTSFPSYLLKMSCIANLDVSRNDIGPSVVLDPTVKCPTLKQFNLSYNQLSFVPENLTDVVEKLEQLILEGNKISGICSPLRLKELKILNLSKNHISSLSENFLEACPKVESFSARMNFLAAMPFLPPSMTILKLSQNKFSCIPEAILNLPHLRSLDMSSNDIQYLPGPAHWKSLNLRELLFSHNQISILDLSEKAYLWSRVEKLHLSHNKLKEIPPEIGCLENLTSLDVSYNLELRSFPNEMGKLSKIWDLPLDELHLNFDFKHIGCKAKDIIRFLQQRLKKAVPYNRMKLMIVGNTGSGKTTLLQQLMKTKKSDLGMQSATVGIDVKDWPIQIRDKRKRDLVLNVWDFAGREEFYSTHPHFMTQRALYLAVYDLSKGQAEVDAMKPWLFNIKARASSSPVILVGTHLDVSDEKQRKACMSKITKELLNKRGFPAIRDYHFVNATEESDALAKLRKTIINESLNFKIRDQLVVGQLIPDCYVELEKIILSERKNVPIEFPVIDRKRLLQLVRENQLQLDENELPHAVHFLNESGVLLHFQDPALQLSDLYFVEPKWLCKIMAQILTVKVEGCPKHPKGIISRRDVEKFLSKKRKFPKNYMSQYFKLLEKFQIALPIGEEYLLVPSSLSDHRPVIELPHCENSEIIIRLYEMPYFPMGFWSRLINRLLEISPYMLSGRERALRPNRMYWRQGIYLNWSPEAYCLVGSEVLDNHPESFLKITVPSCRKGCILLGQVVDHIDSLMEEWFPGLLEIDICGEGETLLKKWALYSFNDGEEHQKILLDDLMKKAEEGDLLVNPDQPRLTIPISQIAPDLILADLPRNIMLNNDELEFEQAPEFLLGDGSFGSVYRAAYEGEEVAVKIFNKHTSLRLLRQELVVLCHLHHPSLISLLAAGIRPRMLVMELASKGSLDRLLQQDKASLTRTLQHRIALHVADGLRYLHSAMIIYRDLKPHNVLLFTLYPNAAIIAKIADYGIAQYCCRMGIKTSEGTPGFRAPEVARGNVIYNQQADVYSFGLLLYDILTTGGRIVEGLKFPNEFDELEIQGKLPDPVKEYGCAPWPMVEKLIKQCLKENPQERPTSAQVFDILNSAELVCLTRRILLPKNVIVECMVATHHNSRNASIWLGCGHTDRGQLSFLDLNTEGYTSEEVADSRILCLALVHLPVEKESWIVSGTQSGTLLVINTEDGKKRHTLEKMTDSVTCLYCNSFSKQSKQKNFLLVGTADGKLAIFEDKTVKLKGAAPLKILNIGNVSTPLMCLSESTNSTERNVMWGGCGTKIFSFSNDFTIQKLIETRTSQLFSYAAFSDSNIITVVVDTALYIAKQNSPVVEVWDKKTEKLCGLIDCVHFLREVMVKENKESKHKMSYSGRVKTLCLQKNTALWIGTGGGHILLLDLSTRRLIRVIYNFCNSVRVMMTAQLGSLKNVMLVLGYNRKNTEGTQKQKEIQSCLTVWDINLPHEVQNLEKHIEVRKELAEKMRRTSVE

IC50, ≤ 100 nM:
Cc1c2c(nn1C1CC3CCC(C1)O3)OCCC(C)Nc1nc(ncc1Cl)N2 (single isomer, unassigned) [E249, 14-Chloro-4,11-dimethyl-5-{8-oxabicyclo[3.2.1]octan-3-yl}-8-oxa-2,5,6,12,16,17-hexaazatricyclo[11.3.1.0^3,7] heptadeca-1(16),3,6,13(17),14-pentaene]
Cc1c2c(nn1C1COCCC1F)OCC[C@@H](C)Nc1nc(ncc1Cl)N2 (single isomer, unassigned) [E325]
N#Cc1c2c(nn1C1CCOCC1)OCCCNc1nc(ncc1Cl)N2 [E14, 14-Chloro-5-(oxan-4-yl)-8-oxa-2,5,6,12,16,17-hexaazatricyclo[11.3.1.0^3,7]heptadeca-1(16),3,6,13(17),14-pentaene-4-carbonitrile]
Cc1c2c(nn1C1CCCOC1)OCCCNc1nc(ncc1Br)N2 (single isomer, unassigned) [E288, 14-Bromo-4-methyl-5-(oxan-3-yl)-8-oxa-2,5,6, 12,16,17-hexaazatricyclo[11.3.1.0^3,7]heptadeca-1(16),3,6,13(17), 14-pentaene]
CCOC(=O)C(C)(C)n1nc2c(c1C)Nc1ncc(Cl)c(n1)NC(C)CCO2 (single isomer, unassigned) [E38, Ethyl 2-{14-chloro-4,11-dimethyl-8-oxa-2,5,6,12,16,17-hexaazatricyclo [11.3.1.0^3,7]heptadeca-1(16),3,6,13(17),14-pentaen-5-yl}-2-methylpropanoate]
Cc1c2c(nn1C1CN(C3COC3)CCC1(F)F)OCCCNc1nc(ncc1Cl)N2 (single isomer, unassigned) [E408, 14-Chloro-5-[4,4-difluoro-1-(oxetan-3-yl)piperidin-3-yl]-4-methyl-8-oxa-2,5,6,12,16,17-hexaazatricyclo[11.3.1.0^3,7]heptadeca-1(16),3,6,13(17),14-pentaene]
Cc1c2c(nn1C1CCOCC1F)OCCC(C)Nc1nc(ncc1Cl)N2 (single isomer, unassigned) [E24, 14-chloro-5-(3-fluorooxan-4-yl)-4,11-dimethyl-8-oxa-2,5,6,12,16,17-hexaazatricyclo [11.3.1.0^3,7]heptadeca-1(17),3,6,13,15-pentaene]
Cc1c2c(nn1C1CCOC(C)C1)OCCC(C)Nc1nc(ncc1Cl)N2 (single isomer, unassigned) [E80, 14-chloro-4,11-dimethyl-5-(2-methyloxan-4-yl)-8-oxa-2,5,6,12, 16,17-hexaazatricyclo[11.3.1.0^3,7]heptadeca-1(16),3,6,13(17),14-pentaene]
COC1CNc2nc(ncc2Cl)Nc2c(nn(C3CCCOC3)c2C)OC1 (single isomer, unassigned) [E229, 14-Chloro-10-methoxy-4-methyl-5-(oxan-3-yl)-8-oxa-2,5,6,12,16,17-hexaazatricyclo[11.3.1.0^3,7]heptadeca-1(17),3,6,13,15-pentaene]
Cc1c2c(nn1C1COCCC1F)OCCCNc1nc(ncc1Cl)N2 (single isomer, unassigned) [E86, 14-chloro-5-[4-fluorooxan-3-yl]-4-methyl-8-oxa-2,5,6,12,16,17-hexaazatricyclo [11.3.1.0^3,7]heptadeca-1(16),3,6,13(17),14-pentaene]
Cc1c2c(nn1C1CCOCC1)OCCCNc1nc(ncc1C(F)(F)F)N2 [E111, 4-Methyl-5-(oxan-4-yl)-14-(trifluoromethyl)-8-oxa-2,5,6,12,16, 17-hexaazatricyclo[11.3.1.0^3,7]heptadeca-1(16),3,6,13(17),14-pentaene]
COCCN1c2nc(ncc2Cl)Nc2c(nn(C3CCOCC3)c2C)OCC[C@H]1C [E400, (11R)-14-Chloro-12-(2-methoxyethyl)-4,11-dimethyl-5-(oxan-4-yl)-8-oxa-2,5,6,12,16,17-hexaazatricyclo[11.3.1.0^3,7]heptadeca-1(16),3,6,13(17),14-pentaene]
Cc1c2c(nn1C1CCC(N3CCC(F)C3)CC1)OCCCNc1nc(ncc1Cl)N2 (single isomer, unassigned) [E152, 14-Chloro-5-[4-(3-fluoropyrrolidin-1-yl)cyclohexyl]-4-methyl-8-oxa-2,5,6,12,16,17-hexaazatricyclo[11.3.1. 0^3,7]heptadeca-1(16),3,6,13(17),14-pentaene]
Cc1c2c(nn1C(C)(C)CO)OCC[C@@H](C)Nc1nc(ncc1Cl)N2 [E452, 2-[(11R)-14-Chloro-4,11-dimethyl-8-oxa-2,5,6,12,16,17-hexaazatricyclo[11.3.1.0^3,7]heptadeca-1(16),3,6,13(17),14-pentaen-5-yl]-2-methylpropan-1-ol]
C[C@@H]1CCOc2nn(C3CN(C4COC4)CCC3(F)F)c(Cl)c2Nc2ncc(Cl)c(n2)N1 (single isomer, unassigned) [E442]
Cc1c2c(nn1C1CCOC1)OCCCNc1nc(ncc1C(F)(F)F)N2 (stereo not drawn) [E126, 4-Methyl-5-(oxolan-3-yl)-14-(trifluoromethyl)-8-oxa-2,5,6,12,16, 17-hexaazatricyclo[11.3.1.0^3,7]heptadeca-1(16),3,6,13(17),14-pentaene]
Cc1c2c(nn1C1CCOCC1C)OCCCNc1nc(ncc1Cl)N2 (single isomer, unassigned) [E412]
COC1CNc2nc(ncc2Cl)Nc2c(nn(CC(F)(F)F)c2C)OC1 (single isomer, unassigned) [E269, 14-Chloro-10-methoxy-4-methyl-5-(2,2,2-trifluoroethyl)-8-oxa-2,5,6,12,16,17-hexaazatricyclo[11.3.1.0^3,7] heptadeca-1(16),3,6,13 (17),14-pentaene]
Cc1c2c(nn1C(C)(C)CO)OCCCNc1nc(ncc1Cl)N2 [E451, 2-{14-Chloro-4-methyl-8-oxa-2,5,6,12,16,17-hexaazatricyclo[11. 3.1.0^3,7]heptadecal 1(16),3,6,13(17),14-pentaen-5-yl}-2-methylpropan-1-ol]
Cc1c2c(nn1C1CCCOC1)OCCCNc1nc(ncc1Cl)N2 (stereo not drawn) [E8, 14-Chloro-4-methyl-5-(oxan-3-yl)-8-oxa-2,5,6,12,16,17-hexaazatricyclo[11.3.1.0^3,7]heptadeca-1(16),3,6,13(17),14-pentaene]
Cc1c2c(nn1C1COCC(F)C1)OCCCNc1nc(ncc1Cl)N2 (single isomer, unassigned) [E371, 14-Chloro-5[5-fluorooxan-3-yl]-4-methyl-8-oxa-2,5,6,12,16,17-hexaazatricyclo[11.3.1.0^3,7]heptadeca-1(16),3,6, 13(17),14-pentaene]
COC1CNc2nc(ncc2C(F)(F)F)Nc2c(nn(C3CCOCC3)c2C)OC1 (stereo not drawn) [E119, 10-Methoxy-4-methyl-5-(oxan-4-yl)-14-(trifluoromethyl)-8-oxa-2,5,6,12,16,17-hexaazatricyclo[11.3.1.0^3,7]heptadeca-1(16),3,6, 13(17),14-pentaene]
Cc1c2c(nn1C1CC(N3CCC(F)(F)C3)C1)OCCC(C)Nc1nc(ncc1Cl)N2 (single isomer, unassigned) [E314, 14-Chloro-5-[3-(3,3-difluoropyrrolidin-1-yl)cyclobutyl]-4,11-dimethyl-8-oxa-2,5,6,12,16,17-hexaazatricyclo [11.3.1.0^3,7]-heptadeca-1(16),3,6,13(17),14-pentaene]
Cc1c2c(nn1C1CCOC(CO)C1)OCC[C@@H](C)Nc1nc(ncc1Cl)N2 (stereo partly drawn) [E331, {4-[(11R)-14-Chloro-4,11-dimethyl-8-oxa-2,5,6,12,16,17-hexaazatricyclo[11.3.1.0^3,7]heptadeca-1(16),3,6,13(17),14-pentaen-5-yl]oxan-2-yl}methanol]
